Results as given in PubChem BioAssay (NCI).
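Cells were grown in 96-well plates and exposed to each compound for 48 hours at five concentrations; endpoints were interpolated linearly between bracketing concentrations, or set to the highest concentration if not reached. TGI marks complete inhibition of growth.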

Key:
Assay in all cases: DTP human tumour cell line panel, 48 h
MALME-3M melanoma = tested on: MALME-3M melanoma
IGROV1 ovarian = tested on: IGROV1 ovarian
SNB-19 CNS = tested on: SNB-19 CNS
CCRF-CEM leukemia = tested on: CCRF-CEM leukemia
U251 CNS = tested on: U251 CNS
K-562 leukemia = tested on: K-562 leukemia
OVCAR-5 ovarian = tested on: OVCAR-5 ovarian
NCI-H226 lung = tested on: NCI-H226 lung
PC-3 prostate = tested on: PC-3 prostate
HCC-2998 colon = tested on: HCC-2998 colon
HCT-15 colon = tested on: HCT-15 colon
KM12 colon = tested on: KM12 colon
SF-539 CNS = tested on: SF-539 CNS
LOX IMVI melanoma = tested on: LOX IMVI melanoma
A549 NSCLC = tested on: A549 NSCLC
T-47D breast = tested on: T-47D breast
NCI-H522 lung = tested on: NCI-H522 lung
NCI/ADR-RES ovarian = tested on: NCI/ADR-RES ovarian
TK-10 renal = tested on: TK-10 renal
SK-MEL-5 melanoma = tested on: SK-MEL-5 melanoma
SN12C renal = tested on: SN12C renal
COLO 205 colon = tested on: COLO 205 colon
DU-145 prostate = tested on: DU-145 prostate
SF-295 CNS = tested on: SF-295 CNS
MOLT-4 leukemia = tested on: MOLT-4 leukemia
MCF7 breast = tested on: MCF7 breast
HOP-62 NSCLC = tested on: HOP-62 NSCLC
NCI-H23 lung = tested on: NCI-H23 lung
CAKI-1 renal = tested on: CAKI-1 renal
SR leukemia = tested on: SR leukemia
SK-OV-3 ovarian = tested on: SK-OV-3 ovarian
HCT-116 colon = tested on: HCT-116 colon
OVCAR-8 ovarian = tested on: OVCAR-8 ovarian
ACHN renal = tested on: ACHN renal
UACC-257 melanoma = tested on: UACC-257 melanoma
SNB-75 CNS = tested on: SNB-75 CNS
HS 578T breast = tested on: HS 578T breast
HT29 colon = tested on: HT29 colon
UO-31 renal = tested on: UO-31 renal
MDA-MB-435 = tested on: MDA-MB-435
EKVX NSCLC = tested on: EKVX NSCLC
UACC-62 melanoma = tested on: UACC-62 melanoma
NCI-H460 lung = tested on: NCI-H460 lung
RPMI-8226 leukemia = tested on: RPMI-8226 leukemia
MDA-N = tested on: MDA-N
OVCAR-3 ovarian = tested on: OVCAR-3 ovarian
SK-MEL-28 melanoma = tested on: SK-MEL-28 melanoma
786-0 renal = tested on: 786-0 renal
SW-620 colon = tested on: SW-620 colon
OVCAR-4 ovarian = tested on: OVCAR-4 ovarian
SK-MEL-2 melanoma = tested on: SK-MEL-2 melanoma
BT-549 breast = tested on: BT-549 breast
SF-268 CNS = tested on: SF-268 CNS
M14 melanoma = tested on: M14 melanoma
HL-60(TB) leukemia = tested on: HL-60(TB) leukemia
MDA-MB-231 breast = tested on: MDA-MB-231 breast
HOP-92 NSCLC = tested on: HOP-92 NSCLC

Measured: TGI

Cc1ncc([N+](=O)[O-])n1CCNC(=O)CCn1ccnc1[N+](=O)[O-]
not listed: MDA-MB-231 breast | HOP-92 NSCLC
> 100 µM: all other assays above

C(/C=N/NC1=NCCCN1)=N\NC1=NCCCN1
not listed: HCT-15 colon | TK-10 renal | DU-145 prostate | SF-295 CNS | RPMI-8226 leukemia | SK-MEL-2 melanoma | HL-60(TB) leukemia
> 100 µM: all other assays above
